Data reported in article PMC3779521 (Organic letters, 2013).

System: CazF
Format: biochemical
Settings: propargyl donor at MT domain; co-substrate acetoacetyl-SNAC (4)

## C#CC[Se+](CC[C@H](N)C(=O)O)C[C@H]1O[C@@H](n2cnc3c(N)ncnc32)[C@H](O)[C@@H]1O (stereo partly drawn) [compound 2, propargylic Se-adenosyl-L-methionine]
  Km: 43.6 µM
